In PubChem BioAssay AID212 (DTP/NCI, 2004):
“And” between values parts separate entries of the source, which are not always exact repeats. Equal entries are not always repeated. Results filed as inconclusive are left out.

System: BDF1 mice, colon carcinoma 38 sc, T/C %
Test: NCI In Vivo Anticancer Drug Screen. Data for tumor model Colon Carcinoma 38 (subcutaneous) in B6D2F1 (BDF1) mice
Details: endpoint: median tumor weight (est.), higher = larger tumour
Description: The antitumor activity of compounds was measured in mice bearing transplantable tumors. Survival or tumor size were measured and the results are expressed as the measurement made in the treated group (T) divided by the measurement made in the vehicle treated control group (C). The tumor model used in this assay is Colon Carcinoma 38 (subcutaneous) in B6D2F1 (BDF1) mice

[1] = dose: 12.5 mg/kg/injection, schedule: Q07DX002 (ip), vehicle: saline
[2] = dose: 50.0 mg/kg/injection, schedule: Q07DX002 (ip), vehicle: saline
[3] = dose: 3.12 mg/kg/injection, schedule: Q07DX002 (ip), vehicle: saline with Tween-80
[4] = dose: 6.25 mg/kg/injection, schedule: Q07DX002 (ip), vehicle: saline with Tween-80
[5] = dose: 12.5 mg/kg/injection, schedule: Q07DX002 (ip), vehicle: saline with Tween-80
[6] = dose: 25.0 mg/kg/injection, schedule: Q07DX002 (ip), vehicle: saline with Tween-80
[7] = dose: 100.0 mg/kg/injection, schedule: Q07DX002 (ip), vehicle: saline

In the case of `CC[C@@]1(O)C[C@H](OC2CC(N(C)C)C(OC3CC(O)C(OC4CC(O)C(O)C(C)O4)C(C)O3)C(C)O2)c2c(cc3c(c2O)C(=O)c2c(O)ccc(O)c2C3=O)[C@H]1C(=O)OC` (some centres not stated), the T/C (dose: 1.5 mg/kg/injection, schedule: Q07DX003 (ip), vehicle: Klucel (hydroxypropylcellulose) (HPC)) is reported as 95 % of control and the T/C (dose: 3.0 mg/kg/injection, schedule: Q07DX003 (ip), vehicle: Klucel (hydroxypropylcellulose) (HPC)) is reported as 72 % of control.
`Nc1nc(=O)n(C2OC(CO)C(O)C2O)cc1F` (configuration not stated) was tested, and the T/C [1] was 124 % of control, the T/C (dose: 25.0 mg/kg/injection, schedule: Q07DX002 (ip), vehicle: saline) was 211 % of control and the T/C [2] was 118 % of control and 235 % of control. The T/C (dose: 200.0 mg/kg/injection, schedule: Q07DX002 (ip), vehicle: saline) was 60 % of control and 83 % of control.
For `CC1=C/C(O)CC(=O)Cc2nc(co2)C(=O)N2CCC=C2C(=O)OC(C(C)C)C(C)/C=C\C(=O)NC/C=C\1` (configuration not stated), the T/C (dose: 50.0 mg/kg/injection, schedule: Q07DX002 (ip), vehicle: Klucel (hydroxypropylcellulose) (HPC)) was 109 % of control, the T/C (dose: 400.0 mg/kg/injection, schedule: Q07DX002 (ip), vehicle: Klucel (hydroxypropylcellulose) (HPC)) was 102 % of control and the T/C (dose: 800.0 mg/kg/injection, schedule: Q07DX002 (ip), vehicle: Klucel (hydroxypropylcellulose) (HPC)) was 117 % of control.
For `O/N=C/c1ccccc1O.O/N=C/c1ccccc1O.[Cu]`, the T/C [3] was 89 % of control and 100 % of control, the T/C [4] was 92 % of control and 100 % of control and the T/C [5] was 102 % of control and 108 % of control. For the same compound, the T/C [6] was 87 % of control and 104 % of control.
With `O=C(O)Cc1cccc2c(=O)cc(-c3ccco3)oc12` the T/C [2] was 74 % of control and the T/C [7] was 53 % of control.
For `ClCCCN1CCCCC1CCl` (configuration not stated), the T/C (dose: 0.78 mg/kg/injection, schedule: Q07DX002 (ip), vehicle: saline) was 80 % of control and 86 % of control.
With `CC(C)NC(=O)OCc1c(COC(=O)NC(C)C)c(-c2ccc(Cl)c(Cl)c2)n2c1CCC2` the T/C (dose: 12.5 mg/kg/injection, schedule: Q07DX002 (ip), vehicle: distilled water + Tween-80) was 82 % of control and 99 % of control, the T/C (dose: 25.0 mg/kg/injection, schedule: Q07DX002 (ip), vehicle: distilled water + Tween-80) was 114 % of control and 94 % of control and 107 % of control and the T/C (dose: 50.0 mg/kg/injection, schedule: Q07DX002 (ip), vehicle: distilled water + Tween-80) was 53 % of control and 67 % of control.
`C=C(C)C(=O)OC1C/C(CO)=C\C(O)C/C(C)=C/C2OC(=O)C(=C)C21` (configuration not stated) was tested, and the T/C (dose: 2.5 mg/kg/injection, schedule: Q07DX002 (ip), vehicle: saline + alcohol) was 105 % of control, the T/C (dose: 5.0 mg/kg/injection, schedule: Q07DX002 (ip), vehicle: saline + alcohol) was 117 % of control and the T/C (dose: 20.0 mg/kg/injection, schedule: Q07DX002 (ip), vehicle: saline + alcohol) was 120 % of control. For the same compound, the T/C (dose: 40.0 mg/kg/injection, schedule: Q07DX002 (ip), vehicle: saline + alcohol) was 119 % of control.
With `O=C1OC(C(O)CO)C(O)=C1O` (configuration not stated) the T/C [2] was 43 % of control, the T/C [7] was 100 % of control and the T/C (dose: 800.0 mg/kg/injection, schedule: Q07DX002 (ip), vehicle: saline) was 83 % of control. For the same compound, the T/C (dose: 1600.0 mg/kg/injection, schedule: Q07DX002 (ip), vehicle: saline) was 100 % of control.
`CCN(CC)CCCC(C)Nc1c2ccc(Cl)cc2nc2ccc(OC)cc12` (configuration not stated) was tested, and the T/C (dose: 16.0 mg/kg/injection, schedule: Q07DX003 (ip), vehicle: suspension in saline) was 96 % of control and 103 % of control, the T/C (dose: 32.0 mg/kg/injection, schedule: Q07DX003 (ip), vehicle: suspension in saline) was 95 % of control and 106 % of control and the T/C (dose: 64.0 mg/kg/injection, schedule: Q07DX003 (ip), vehicle: suspension in saline) was 53 % of control. The T/C (dose: 128.0 mg/kg/injection, schedule: Q07DX003 (ip), vehicle: suspension in saline) was 79 % of control.
`C=CS(=O)(=O)c1ccccc1` was tested, and the T/C [4] was 91 % of control, the T/C [5] was 66 % of control and the T/C [1] was 97 % of control. For the same compound, the T/C [6] was 174 % of control, the T/C (dose: 50.0 mg/kg/injection, schedule: Q07DX002 (ip), vehicle: saline with Tween-80) was 150 % of control and the T/C [2] was 100 % of control. For the same compound, the T/C (dose: 100.0 mg/kg/injection, schedule: Q07DX002 (ip), vehicle: saline with Tween-80) was 109 % of control.
With `O=C1C2CC=CCC2C(=O)N1SC(Cl)(Cl)Cl` (configuration not stated) the T/C [3] was 107 % of control, the T/C [4] was 110 % of control and the T/C [5] was 99 % of control. For the same compound, the T/C [6] was 84 % of control.
